Laboratory results published in ChEMBL document CHEMBL6153074, “Discovery of novel dual tubulin and MMPs inhibitors for the treatment of lung cancer and overcoming drug resistance” (Eur J Med Chem, 2025).
Active and inactive are the calls of the source. The rule behind the calls is not given here.

Key:
[1] = Toxicity in BALB/c mouse xenografted with human A549 cells assessed as effect on kidney at 10 to 20 mg/kg, ip for 3 weeks administered on every 2 days by H and E staining based analysis; assay type: organism-based; conditions: in vivo, 504 h, dose 10-20 mg/kg
MDA-MB-231 = assay: Antiproliferative activity against human MDA-MB-231 cells by CCK8 assay
Tubulin (Homo sapiens) [2] = target: T1, Tubulin (Homo sapiens) (UniProt P68371+Q9H4B7+P0DPH7+P68366+Q13509+Q71U36+P04350+Q3ZCM7+P07437+P68363+Q9BQE3+Q6PEY2+Q13885+Q9BVA1+Q9BUF5); assay: Disruption of microtubule network in human A549 cells assessed as contraction towards cell border at 2.5 to 5 uM incubated for 24 hrs by immunofluorescence based analysis; conditions: dose 2.5-5 µM
[3] = Antiproliferative activity against human L02 cells by CCK8 assay; assay type: toxicity, cell-based
A549 [4] = assay: Antitumor activity against human A549 cells xenografted in BALB/c mouse assessed as decrease in Ki67 level at 20 mg/kg, ip for 3 weeks administered on every 2 days by IHC analysis; assay type: functional, organism-based
A549 [5] = assay: Induction of cell cycle arrest in human A549 cells assessed as decrease in cdc2 by Western blot analysis; assay type: functional, cell-based
A549 [6] = assay: Induction of apoptosis in human A549 cells assessed as viable cells at 0.25 uM incubated for 24 hrs by Annexin V-FITC/PI staining based flow cytometry (reference value: 95.82 %); assay type: functional; conditions: read-out: Activity
A549 [7] = assay: Induction of cell cycle arrest in human A549 cells assessed as accumulation at S phase at 0.25 uM incubated for 24 hrs by PI staining based flow cytometry (reference value: 37.95 %); assay type: functional
A549 [8] = assay: Induction of intracellular ROS accumulation in human A549 cells at 0.25 uM incubated for 24 hrs by DCFH-DA dye based flow cytometry (reference value: 4.96 %); assay type: functional
A549 [9] = assay: Induction of apoptosis in human A549 cells assessed as early apoptotic cells at 0.5 uM incubated for 24 hrs by Annexin V-FITC/PI staining based flow cytometry (reference value: 3.04 %); assay type: functional
[10] = Toxicity in BALB/c mouse xenografted with human A549 cells assessed as effect on lung at 10 to 20 mg/kg, ip for 3 weeks administered on every 2 days by H and E staining based analysis; assay type: organism-based; conditions: in vivo, 504 h, dose 10-20 mg/kg
MCF7 = assay: Antiproliferative activity against human MCF7 cells by CCK8 assay
Stromelysin-1 = Stromelysin-1 (Homo sapiens, UniProt P08254); assay: Inhibition of MMP-3 (unknown origin) using fluorogenic-McaPro-Leu-Gly-Leu-Dpa-Ala-Arg-NH2 as substrate
Stromelysin-1, sequence (P08254 whole entry): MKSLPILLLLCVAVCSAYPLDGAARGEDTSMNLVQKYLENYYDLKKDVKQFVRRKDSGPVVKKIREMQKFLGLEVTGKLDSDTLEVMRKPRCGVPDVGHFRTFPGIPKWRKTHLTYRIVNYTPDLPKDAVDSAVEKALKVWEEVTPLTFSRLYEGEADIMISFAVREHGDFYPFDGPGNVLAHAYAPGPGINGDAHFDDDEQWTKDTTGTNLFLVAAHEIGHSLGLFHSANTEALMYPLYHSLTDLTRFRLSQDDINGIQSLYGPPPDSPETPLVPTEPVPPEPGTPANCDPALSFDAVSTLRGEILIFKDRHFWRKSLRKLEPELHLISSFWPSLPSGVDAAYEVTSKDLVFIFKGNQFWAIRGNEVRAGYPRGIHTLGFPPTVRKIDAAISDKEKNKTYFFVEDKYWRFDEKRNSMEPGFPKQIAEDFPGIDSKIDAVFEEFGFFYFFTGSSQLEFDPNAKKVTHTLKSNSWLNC

A549 [11] = assay: Induction of cell cycle arrest in human A549 cells assessed as accumulation at S phase at 0.5 uM incubated for 24 hrs by PI staining based flow cytometry (reference value: 37.95 %); assay type: functional
A549 [12] = assay: Induction of apoptosis in human A549 cells assessed as increase in cleaved caspase-3 level at 0.5 uM incubated for 24 hrs by Western blot analysis; assay type: functional, cell-based
A549 [13] = assay: Induction of apoptosis in human A549 cells assessed as viable cells at 0.5 uM incubated for 24 hrs by Annexin V-FITC/PI staining based flow cytometry (reference value: 95.82 %); assay type: functional; conditions: read-out: Activity
A549 [14] = assay: Induction of apoptosis in human A549 cells assessed as necrotic cells at 0.25 uM incubated for 24 hrs by Annexin V-FITC/PI staining based flow cytometry (reference value: 0.13 %); assay type: functional
[15] = Toxicity in BALB/c mouse xenografted with human A549 cells assessed as effect on liver at 10 to 20 mg/kg, ip for 3 weeks administered on every 2 days by H and E staining based analysis; assay type: organism-based; conditions: in vivo, 504 h, dose 10-20 mg/kg
[16] = Stability of compound in DMEM containing 1 percent DMF at pH 7.4 measured for 24 to 72 hrs; assay type: physicochemical; conditions: buffer, time 24-72 hrs
A549 [17] = assay: Induction of apoptosis in human A549 cells assessed as late apoptotic cells at 0.5 uM incubated for 24 hrs by Annexin V-FITC/PI staining based flow cytometry (reference value: 1.01 %); assay type: functional
[18] = Toxicity in BALB/c mouse xenografted with human A549 cells assessed as effect on heart at 10 to 20 mg/kg, ip for 3 weeks administered on every 2 days by H and E staining based analysis; assay type: organism-based; conditions: in vivo, 504 h, dose 10-20 mg/kg
A549 [19] = assay: Induction of cell cycle arrest in human A549 cells assessed as accumulation at G2 phase at 0.25 uM incubated for 24 hrs by PI staining based flow cytometry (reference value: 3.37 %); assay type: functional
A549 [20] = assay: Induction of mitochondrial membrane potential loss in human A549 cells at 0.25 uM incubated for 24 hrs by JC-1 dye based analysis (reference value: 3.14 %); assay type: functional
Tubulin (Homo sapiens) [21] = target: T1, Tubulin (Homo sapiens); assay: Inhibition of tubulin polymerization (unknown origin) incubated for 65 mins by fluorescence based analysis; assay type: protein-complex assay; conditions: dose 0.625-20 µM
A549 [22] = assay: Induction of cell cycle arrest in human A549 cells assessed as accumulation at G2 phase at 0.5 uM incubated for 24 hrs by PI staining based flow cytometry (reference value: 3.37 %); assay type: functional
A549 [23] = assay: Induction of mitochondrial membrane potential loss in human A549 cells at 0.5 uM incubated for 24 hrs by JC-1 dye based analysis (reference value: 3.14 %); assay type: functional
[24] = Toxicity in BALB/c mouse xenografted with human A549 cells assessed as effect on spleen at 10 to 20 mg/kg, ip for 3 weeks administered on every 2 days by H and E staining based analysis; assay type: organism-based; conditions: in vivo, 504 h, dose 10-20 mg/kg
[25] = Toxicity in BALB/c mouse xenografted with human A549 cells assessed as body weight loss at 10 to 20 mg/kg, ip for 3 weeks administered on every 2 days; assay type: organism-based; conditions: in vivo, 504 h, dose 10-20 mg/kg
A549 [26] = assay: Antitumor activity against human A549 cells xenografted in BALB/c mouse at 20 mg/kg, ip for 3 weeks administered on every 2 days relative to control; assay type: functional; conditions: A549, 504 h, read-out: TGI
A549 [27] = assay: Induction of apoptosis in human A549 cells assessed as necrotic cells at 0.5 uM incubated for 24 hrs by Annexin V-FITC/PI staining based flow cytometry (reference value: 0.13 %); assay type: functional
[28] = Stability of compound in PBS at pH 7.4 measured for 24 to 72 hrs; assay type: physicochemical; conditions: buffer, time 24-72 hrs
[29] = Antiproliferative activity against human MCF-10A cells by CCK8 assay; assay type: toxicity, cell-based
A549 [30] = assay: Induction of cell cycle arrest in human A549 cells assessed as decrease in cdc25c by Western blot analysis; assay type: functional, cell-based
A549 [31] = assay: Induction of cell cycle arrest in human A549 cells assessed as accumulation at G1 phase at 0.25 uM incubated for 24 hrs by PI staining based flow cytometry (reference value: 58.67 %); assay type: functional
NCI-H460 = assay: Antiproliferative activity against human NCI-H460 cells by CCK8 assay
A549 [32] = assay: Induction of apoptosis in human A549 cells assessed as increase in Bax level at 0.5 uM incubated for 24 hrs by Western blot analysis; assay type: functional, cell-based

IC50 (MDA-MB-231): 296 nM
Activity (Tubulin (Homo sapiens) [2]): Active
IC50 (MCF7): 253 nM
IC50 (Stromelysin-1): 36400 nM
Stability [16]: Stable
inhibition (Tubulin (Homo sapiens) [21]): Dose-dependent-effect
Stability [28]: Stable
IC50 (NCI-H460): 186 nM
SMILES: CCOP(=O)(OCC)C(Nc1ccc(CC(=O)Oc2cc(/C=C/C(=O)c3cc(OC)c(OC)c(OC)c3)ccc2OC)cc1)c1cccc([N+](=O)[O-])c1 (stereo unspecified)
Activity [1]: Non-toxic
IC50 [3]: 2210 nM
Activity (A549 [4]): Active
Activity (A549 [5]): Active
viability at 0.25 µM (A549 [6]): 79.9%
Activity (A549 [7]): 20.12%
Activity (A549 [8]): 36.07%
Activity (A549 [9]): 34.86%
Activity [10]: Non-toxic
Activity (A549 [11]): 3.19%
Activity (A549 [12]): Active
viability at 0.5 µM (A549 [13]): 57.9%
Activity (A549 [14]): 0.3%
Activity [15]: Non-toxic
Activity (A549 [17]): 6.34%
Activity [18]: Non-toxic
Activity (A549 [19]): 37.79%
Activity (A549 [20]): 27.19%
Activity (A549 [22]): 81.23%
Activity (A549 [23]): 56.15%
Activity [24]: Non-toxic
Activity [25]: Non-toxic
inhibition in vivo at 20 mg/kg (A549 [26]): 74.7%
Activity (A549 [27]): 0.93%
IC50 [29]: 2710 nM
Activity (A549 [30]): Active
Activity (A549 [31]): 42.09%
Activity (A549 [32]): Active
